Source: PMC8069166, “Identification of a Prenyl Chalcone as a Competitive Lipoxygenase Inhibitor: Screening, Biochemical Evaluation and Molecular Modeling Studies” (Molecules, 2021)
Entries after “also recorded” stand apart in the source; their conditions may differ. Like-named read-outs stand apart in the source and are kept apart here.

Tests used:
LOX-1 [1] = target: T1, LOX-1 (Glycine max, UniProt P08170); experiment: Oxygen consumption by the catalytic activity of LOX (polarography, O2-selective electrode); format: biochemical, soybean (Glycine max); conditions: compound at 10 µM, 25 °C
T1 sequence (P08170 1-839): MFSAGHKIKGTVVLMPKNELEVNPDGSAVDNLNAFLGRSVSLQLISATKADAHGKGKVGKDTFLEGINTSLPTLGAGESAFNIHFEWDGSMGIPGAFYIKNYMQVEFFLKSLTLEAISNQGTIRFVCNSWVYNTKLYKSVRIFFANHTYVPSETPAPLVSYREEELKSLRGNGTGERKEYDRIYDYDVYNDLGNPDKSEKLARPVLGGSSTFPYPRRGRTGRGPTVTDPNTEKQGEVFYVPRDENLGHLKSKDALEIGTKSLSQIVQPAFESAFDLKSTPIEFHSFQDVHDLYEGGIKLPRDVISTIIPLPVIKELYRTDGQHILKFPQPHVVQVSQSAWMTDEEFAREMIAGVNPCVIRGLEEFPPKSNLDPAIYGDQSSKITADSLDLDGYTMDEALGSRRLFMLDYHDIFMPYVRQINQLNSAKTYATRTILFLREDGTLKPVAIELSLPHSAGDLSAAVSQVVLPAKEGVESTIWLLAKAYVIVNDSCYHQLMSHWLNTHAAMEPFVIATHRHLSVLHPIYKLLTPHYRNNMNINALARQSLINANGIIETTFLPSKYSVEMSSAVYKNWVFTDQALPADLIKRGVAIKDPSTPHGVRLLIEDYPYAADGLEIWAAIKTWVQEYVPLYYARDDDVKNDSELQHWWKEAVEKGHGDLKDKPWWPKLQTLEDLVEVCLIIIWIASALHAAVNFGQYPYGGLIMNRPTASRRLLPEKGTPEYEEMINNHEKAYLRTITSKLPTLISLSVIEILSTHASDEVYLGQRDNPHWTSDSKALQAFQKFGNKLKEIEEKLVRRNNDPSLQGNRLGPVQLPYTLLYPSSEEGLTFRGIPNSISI
Text: A polarography-based assay was used to evaluate the rate of the oxygen consumption during LOX-1 inhibition, during which oxygen consumption is associated with the formation of a hydroperoxyl group [28]. In order to evaluate the decrease in oxygen consumption upon LOX-1 inhibition by the prenyl chalcone 6, an O2-selective electrode coupled to an oxygen monitoring probe was employed. […] The oxygen consumption was monitored using an O2-selective electrode coupled to a YSI 5300 Oxygen Monitor (Yellow Springs, OH, USA) at 25 °C. The reactions were initiated by adding O2 (100 μM), followed by the addition of LOX (20 nM) in 0.1 M Phosphate buffered saline (PBS), with pH 7.4 at 25 °C and the compounds being tested [32].

[2] = cited from earlier work
[3] = target: T2, soybean lipoxygenase-1 (LOX-1) (Glycine max, UniProt P08170); experiment: LOX-1 inhibition, spectrophotometric assay of conjugated diene formed by linoleic acid oxidation; format: biochemical
T2 construct: purchased Sigma-Aldrich, Brazil
T2 sequence (P08170 1-839): T1 sequence (P08170 1-839)
Protocol: For the in vitro screening to identify the inhibitors of the enzymatic activity of LOX-1, a spectrophotometric assay was employed in order to measure the conjugated diene formed by linoleic acid oxidation. Soybean LOX-1, which converts linoleic acid to 13-hydroperoxylinoleic acid, is inhibited by NSAIDs in a qualitatively similar way to that of the rat mast cell line 5-LOX, and it may be used as a reliable screening target for this activity. The screening was performed with compounds from Brazilian biodiversity (NuBBEDB) and synthetic derivatives previously synthesized by using natural products as models. In this context, a variety of natural products were evaluated, such as triterpenes, chalcones, casearins, alkaloids, guanidines, and flavonoids.
(§1) The ability of chalcones 1–6 to act as LOX-1 inhibitors was evaluated according to a method from Ha et al. (2004). Initially, 2.910 mL Tris-HCl buffer ([…] (pH 8.0), Sigma-Aldrich, Brazil) was added to a quartz cuvette, followed by the addition of 25 μL LOX-1 (final concentration 1 μM, Sigma-Aldrich, Brazil) and 10 μL of the compounds tested (the final concentration ranged from 1 to 20 μM). The solution was incubated for 5 min at 25 °C. The reaction was started with the addition of linoleic acid (55 μL, 1 mM, Sigma-Aldrich, Brazil), and the LOX-1 activity was monitored at λ = 221 nm, pH 8.0, and 25 °C by an absorbance spectrophotometer in UV-Vis (Perkin Elmer Lambda 22, Waltham, MA, USA). For the determination of KM, varying substrate concentrations were used (linoleic acid, 13.7–91.7 µM) and 1 µM LOX-1. […] The spectrophotometric measurements at λ = 221 nm are associated with the conjugated double bonds formed from the linoleic acid substrate.

LOX-1 [4] = target: T1, LOX-1; experiment: Enzyme kinetics, mechanism of LOX-1 inhibition; format: biochemical, soybean (Glycine max)
Protocol: as §1

[5] = LOX-1 1 µM, linoleic acid substrate, pH 8.0, 25 °C, mean and standard deviation of three independent experiments, read-out: IC50 for the inhibition of lipoxygenase-1

In the case of CC(Cc1ccc(O)c(O)c1)C(C)Cc1ccc(O)c(O)c1 (stereo not shown) [Nordihydroguaiaretic acid (NDGA), Nordihydroguaiaretic acid, reference compound], the “oxygen consumption during LOX-1 catalysis” value (LOX-1 [1]) is given as “lower rate of oxygen consumption” and the “toxicity on long-term use” value [2] is given as “liver damage and kidney dysfunction”.
For CC(C)=CCOc1ccccc1/C=C/C(=O)c1ccccc1 [Compound 4, 2-O-prenyl chalcone], the IC50 [3, 5] was greater than 50 µM.
In the case of CC(C)=CCC/C(C)=C/CC/C(C)=C/COc1ccccc1/C=C/C(=O)c1ccccc1 [Compound 6, (E)-2-O-farnesyl chalcone], the “oxygen consumption during LOX-1 catalysis” value (LOX-1 [1]) is reported as “delay of the oxygen consumption; also recorded: lower rate of oxygen consumption”, the “oxygen consumption during LOX-1 catalysis” value (LOX-1 [1]; listed as (E)-2-O-farnesyl chalcone) is reported as “decreased the rate of oxygen consumption” and the IC50 [3, 5] is reported as 5.7 ± 0.8 µM. The “fold more potent in LOX-1 inhibition than 2-O-prenyl chalcone (4)” value ([3]; ratio of IC50 values, versus compound 4) was greater than 10 fold, the mechanism of inhibition (LOX-1 [4]; LOX-1, enzyme kinetics) was “competitive” and the Ki (LOX-1 [4]; increasing concentrations of 6 (5–10 µM), linoleic acid substrate) was 7 µM.
With CC(C)=CCC/C(C)=C/COc1cccc(/C=C/C(=O)c2ccccc2)c1 [Compound 5, 3-O-geranyl chalcone] the IC50 [3, 5] was 11.8 ± 0.9 µM.
Molecule O=C(/C=C/c1cccc(O)c1)c1ccccc1 [Compound 2] has an IC50 [3, 5] greater than 50 µM.
O=C(/C=C/c1ccc(O)cc1)c1ccccc1 [Compound 3, (E)-4-hydroxychalcone] showed an IC50 [3] greater than 50 µM.
O=C(/C=C/c1ccccc1O)c1ccccc1 [Compound 1] gave an IC50 [3, 5] greater than 50 µM.
